Results on 57 compounds are retold here after the supplement of paper PMC10949913.

Structures are written as SMILES.

What all share (assay): area under concentration-response curve (viability) (AUC (a.u.)); higher = less active
Common to all, as to settings: 48 h

One experiment concerns CU-ACC2. The procedure, abridged: (§1)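 In 1,536-well plates, 500–1,000 cells/well of three adrenocortical carcinoma cell lines in 5 µL medium received 23 nL of each library compound across 11 concentrations. At 48 h, CellTiter-Glo was incubated for 15 minutes at room temperature and luminescence measured. Per-plate normalisation used vehicle and empty-well controls, and only inhibitory or non-responding curve classes were kept when fitting concentration-response curves for AC50 and area under the curve.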

A further experiment deals with CU-ACC1. In outline:
as §1

For the next experiment, the system named is NCI-H295R. In outline: as §1

Turning to `C=CC(=O)Nc1ccc(F)c(-c2ncnc3[nH]cc(C(=O)OCC)c23)c1`, the “area under concentration-response curve” value in the experiment on CU-ACC2 was 489.

Turning to `OC1=CC=C2\C3=C(CNCC3)/C(=O)OC2=C1C4OCCCO4`, the “area under concentration-response curve” value in the experiment on CU-ACC2 was determined as 623.

In the case of `CN1CC/C(CC1)=C3\c4ccccc4CCc2sccc23`, the “area under concentration-response curve” value with CU-ACC2 was determined as 659. For the compound `CC(C)(N)C(=O)N[C@H](COCc1ccccc1)C(=O)N1CCC2(CC1)CN([S+](C)(=O)[O-])c1ccccc12`, the “area under concentration-response curve” value with CU-ACC2 was found to be 489.

Regarding `CN1CCCN=C1/C=C/c1cccs1`, in the experiment on CU-ACC2, the “area under concentration-response curve” value came to 211. On to `CO[C@H]1C[C@@H]2CC[C@@H](C)[C@@](O)(O2)C(=O)C(=O)N2CCCC[C@H]2C(=O)O[C@H]([C@H](C)C[C@@H]2CC[C@@H](OP(C)(C)=O)[C@H](OC)C2)CC(=O)[C@H](C)/C=C(\C)[C@@H](O)[C@@H](OC)C(=O)[C@H](C)C[C@H](C)/C=C/C=C/C=C/1C`, for which the “area under concentration-response curve” value in the experiment with CU-ACC2 is 536. Still for that read-out and setting: as for `CNC(=O)C1=CC=C(C)C(=C1)N2C(=C/C(=C(/Br)C2=O)OCC3=C(F)C=C(F)C=C3)\C`, the figure is 547; as for `O=C(Nc1nnc(-c2ccco2)o1)c1cc(-c2ccccc2)nc2ccccc12`, 576; as for `NC(=O)c1ccc(-c2nc(-c3ccc4c(c3)OCCO4)c(-c3ccccn3)[nH]2)cc1`, 366.

As to `COCCCOc1ccnc(CS(=O)c2nc3ccccc3[n-]2)c1C.[Na+]` (configuration not stated), in the experiment with CU-ACC2, the “area under concentration-response curve” value turned out to be 564. Same read-out and setting: for `CC#C[C@]1(O)CC[C@H]2[C@@H]/3CCC/4=C/C(=O)CCC4=C3[C@H](C[C@]12C)C5=CC=C(C=C5)N(C)C` the value was 546. As for `CC[C@@H](C)[C@H](NC(=O)[C@H](CC1CCCCC1)NC(=O)c1ccno1)C(=O)N1CCC2(CCc3ccccc32)CC1`, the “area under concentration-response curve” value in the experiment with CU-ACC2 came to 118. With `CC\1=C/C=C\C=[N]1[Pt](N)(Cl)Cl`, in the experiment on CU-ACC2, the “area under concentration-response curve” value worked out at 450.

For `O=[S+]([O-])(c1cccc2c(I)cccc12)N1CCCNCC1`, in the experiment with CU-ACC2, the “area under concentration-response curve” value came out at 649.

As to `COC1=CC=CC(=C1N)\C2=C\C(=O)C3=C(O2)C=CC=C3`, the “area under concentration-response curve” value in the experiment with CU-ACC2 was 591. On to `CC1=CC(=CC(=C1C\C2=N\CCN2)C)C(C)(C)C`, for which the “area under concentration-response curve” value in the experiment with CU-ACC2 came to 595. As to `Cc1ccccc1C(=O)c1ccc(Nc2ccc(Br)cc2N)cc1Cl`, the “area under concentration-response curve” value with CU-ACC2 came to 502. Turning to `Nc1nc(F)nc2c1ncn2C1OC(COP(=O)(O)O)C(O)C1O` (configuration not stated), in the experiment on CU-ACC2, the “area under concentration-response curve” value came to 619. Regarding `COc1ccc(-n2nc(C(N)=O)c3c2C(=O)N(c2ccc(N4CCCCC4=O)cc2)CC3)cc1`, in the experiment on CU-ACC2, the “area under concentration-response curve” value is 374. With `N#Cc1cc(NC(=O)Nc2nnc(-c3ccncc3)s2)ccc1-c1cn[nH]c1`, the “area under concentration-response curve” value with CU-ACC2 was 529.

Regarding `COC1=CC=C(C=C1)C2CC(=N/N2C3=CC=C(C=C3)[S+](N)([O-])=O)\C4=CC=CC=C4` (configuration not stated), in the experiment with CU-ACC2, the “area under concentration-response curve” value worked out at 648. For the compound `O=[S+]([O-])(NCCNC/C=C/c1ccc(Br)cc1)c1cccc2cnccc12`, the “area under concentration-response curve” value in the experiment with CU-ACC2 came to 595. For `COC1=C(OC)C=C2C(=CC=NC2=C1)OC3=CC=C(NC(=O)\C4=C\N(C(C)C)C(=O)N(C4=O)C5=CC=C(F)C=C5)C=C3F`, the “area under concentration-response curve” value with CU-ACC1 amounted to 489; in the experiment on NCI-H295R, 460. The corresponding values for `c1cnc2cc3c(cc2n1)C1CNCC3C1` are 536 and 563.

Regarding `CO[C@H]1CC[C@]2(CC1)CC3=C(C=C(C=C3)C4=CN=CC(=C4)C#CC)[C@@]2/5\N=C(C)/C(=N5)N`, the entries for the “area under concentration-response curve” value with CU-ACC1 and in the experiment with NCI-H295R were 487 and 532, respectively. On the same counts, the results for `COC(=O)C[C@](O)(CCCC(C)(C)O)C(=O)O[C@@H]1C(OC)=CC23CCCN2CCc2cc4c(cc2[C@H]13)OCO4` (some centres not stated) are 149 and 252.

With `Cc1c[nH]c(-c2cnc(NCCNc3ccc(C#N)cn3)nc2-c2ccc(Cl)cc2Cl)n1`, the “area under concentration-response curve” value was 538 in the experiment with CU-ACC1 and 558 with NCI-H295R. The corresponding values for `CCC(C)(C)C(=O)O[C@H]1C[C@@H](C)\C=C2\C=C/[C@H](C)[C@H](CC[C@@H]3C[C@@H](O)CC(=O)O3)[C@@H]12` are 399 and 565. For the compound `Cc1ccccc1C(=O)Nc1ccc(C(=O)N2CCCC(O)c3cc(Cl)ccc32)c(C)c1` (configuration not stated), the “area under concentration-response curve” value worked out at 484 in the experiment with CU-ACC1 and 536 in the experiment on NCI-H295R. Take `COC(=O)N1CC2(CC2)C[C@H](C(=O)NO)[C@H]1C(=O)N1CCN(c2ccccc2)CC1`: the “area under concentration-response curve” value came to 412 with CU-ACC1 and 470 with NCI-H295R. As to `CCOC(=O)O[C@@]1(CC[C@H]2[C@@H]3CCC/4=C/C(=O)/C=C\[C@]4(C)[C@H]3[C@@H](O)C[C@]12C)C(=O)OCCl`, the “area under concentration-response curve” value was 364 with CU-ACC1 and 395 with NCI-H295R. With `Cc1cc(Oc2ccc3nc(COc4ccc(CC5SC(=O)NC5=O)cc4)n(C)c3c2)cc(C)c1N` (configuration not stated), the “area under concentration-response curve” value worked out at 512 in the experiment on CU-ACC1 and 556 in the experiment on NCI-H295R. Consider `COC1=CC=CC(=C1/C2=N/CC3=C(N=C(NC4=CC(=C(C=C4)C(O)=O)OC)N=C3)C5=CC=C(Cl)C=C25)F`, for which the “area under concentration-response curve” value in the experiment with CU-ACC1 amounted to 441; in the experiment on NCI-H295R, 469. On the same counts, the results for `Cn1c(CCCC(=O)O)nc2cc(N(CCCl)CCCl)ccc21` are 475 and 540. The corresponding values for `C=C1C[C@@]2(O)O[C@@]3(C[C@H]2C(C)C)[C@@H](C)CC[C@@H]13` are 487 and 541. Take `CCCCOCCOc1nc(-c2ccc(C(=O)O)c(F)c2)sc1C`: the “area under concentration-response curve” value is 367 in the experiment on CU-ACC1 and 399 in the experiment with NCI-H295R. For `CCCC[S+](=N)([O-])CCC(N)C(=O)O` (configuration not stated), the entries for the “area under concentration-response curve” value in the experiment on CU-ACC1 and in the experiment with NCI-H295R were 472 and 533, respectively. Turning to `C[C@@H](Nc1ncnc2[nH]c(-c3ccc(O)cc3)cc12)c1ccccc1`, the results for the “area under concentration-response curve” value in the experiment with CU-ACC1 and in the experiment on NCI-H295R were 300 and 328, respectively. For `OC[C@H]1O[C@H](C[C@@H]1O)[N]2C=NC3=C2\N=C/NC[C@H]3O`, the “area under concentration-response curve” value in the experiment on CU-ACC1 was found to be 485; with NCI-H295R it was 509. For the compound `O=C(CCNC(=O)c1ccc(OC(F)(F)F)cc1)N[C@@H]1CCCc2ccccc21`, the “area under concentration-response curve” value was 149 in the experiment with CU-ACC1 and 81 in the experiment with NCI-H295R.

On to `Cc1ccccc1C(C(=O)NC1CCCCC1)N(C(=O)CNc1ccc(C#N)cc1)c1cccc(F)c1` (configuration not stated), for which the “area under concentration-response curve” value in the experiment on CU-ACC1 stood at 485; in the experiment on NCI-H295R, 507.

Take `NC(=O)c1nc(F)cnc1O`: the “area under concentration-response curve” value with CU-ACC1 was 506; in the experiment with NCI-H295R, 553.

For the compound `C/C(O)=C(\C#N)C(=O)Nc1cc(Br)ccc1Br`, the “area under concentration-response curve” value in the experiment with CU-ACC1 was determined as 446; with NCI-H295R, 456. On the same counts, the results for `CC(C)(C)C(=O)N1\N=C/C[C@H]1C2=CC=CC=C2` are 549 and 568.

Consider `O=C(Nc1nc2ccccc2n1CCN1CCOCC1)c1cccc([N+](=O)[O-])c1`, for which the “area under concentration-response curve” value in the experiment with CU-ACC1 came out at 527; with NCI-H295R, 549. On to `C[N]1N=CN=C1[C@@H]2[C@H](NC3=CC(=CC4=C3\C2=N/NC4=O)F)C5=CC=C(F)C=C5`, for which the figures for the “area under concentration-response curve” value with CU-ACC1 and with NCI-H295R were 405 and 415, respectively.

Take `CC1(C)CN(C(=O)c2ccc(-c3cccc4nc(NC(=O)C5CC5)nn34)cc2)C1`: the “area under concentration-response curve” value in the experiment with CU-ACC1 stood at 345; with NCI-H295R it was 381. On to `CCC[S+](=O)([O-])Nc1ccc(F)c(C(=O)c2c[nH]c3ncc(Cl)cc23)c1F`, for which the “area under concentration-response curve” value stood at 475 in the experiment on CU-ACC1 and 493 in the experiment on NCI-H295R. Take `CC1=CC=C(C=C1)N(C\C2=N\CCN2)C3=CC=CC(=C3)O`: the “area under concentration-response curve” value is 479 with CU-ACC1 and 518 with NCI-H295R.

For `CNC(=O)c1ccc2c(c1)NC(=O)/C2=C(\Nc1cccc(CN(C)C)c1)c1ccccc1`, the “area under concentration-response curve” value came out at 323 in the experiment with CU-ACC1 and 441 with NCI-H295R. Take `CC(C)Nc1cc(C(F)(F)F)cc2nc(NC(=O)c3cccnc3)nn12`: the “area under concentration-response curve” value in the experiment with CU-ACC1 worked out at 373; in the experiment on NCI-H295R, 412. As for `CCn1c(C(=O)N(C2CC2)C2CC2)cc2c3c(ncn3C)c(Nc3cc(C)n(C)n3)nc21`, the results for the “area under concentration-response curve” value with CU-ACC1 and with NCI-H295R were 422 and 540, respectively. Take `CCC(C)N(C)C(=O)c1cc2ccccc2c(-c2ccccc2Cl)n1` (configuration not stated): the “area under concentration-response curve” value with CU-ACC1 worked out at 492; in the experiment on NCI-H295R it was 337. With `CC1=CC(=CC=C1)OC/2=C/NC(=O)/N=C2`, the figures for the “area under concentration-response curve” value with CU-ACC1 and in the experiment with NCI-H295R were 539 and 566, respectively. On the same counts, the results for `O=C(O)c1cc(/N=N/c2ccc(S(=O)(=O)Nc3ccccn3)cc2)ccc1O` are 505 and 522. Take `CCN(C1CCOCC1)C2=C(C)C(=CC(=C2)C3=CC=C(CN4CCOCC4)C=C3)C(=O)NC\C5=C(C)\C=C(C)/NC5=O`: the “area under concentration-response curve” value with CU-ACC1 was 262; in the experiment on NCI-H295R, 249. As to `Cn1cnc2c1c(=O)[nH]c(=O)n2C`, the “area under concentration-response curve” value was 544 with CU-ACC1 and 575 in the experiment on NCI-H295R.
